Assay results from patent publication US20140155410A1 (GlaxoSmithKline LLC, priority 2008, published 2014).

Tests used:
[1] = molecular target: T1, Full length Human FAK (Flag-His-TEV-FAK1) (Homo sapiens, UniProt Q05397); assay: Biochemical assay for FAK activity, Assay 2: LANCE Ultra ULight peptide phosphorylation, 665 nm/615 nm ratio; settings: Flag-His-TEV-FAK1, 10 μM ATP, 30 min pre-incubation; for IC50: read-out: Assay 2 FAK H 31284A TRF PXC50 (converted)
T1 construct: Full length Human FAK was expressed using baculovirus in Sf9 cells; made in house; host or cells: baculovirus in Sf9 cells
Experimental: Flag-His-TEV-FAK1 was prepared in-house. Full length Human FAK was expressed using baculovirus in Sf9 cells with N-terminal FLAG-6×His tags followed by a TEV cleavage site (FLAG-6×His-TEV-huFAK). […] To measure inhibitors of FAK, compounds were first prepared as a 100× stock in 100% DMSO. […] After incubating for 120 minutes at room temperature, the reaction is quenched by adding 5 uL of 20 mM EDTA and 5nMEu-Anti-pTyr antibody in 1× LANCE detection buffer.

GST-tagged FAK = molecular target: T2, GST-tagged FAK (Homo sapiens, UniProt Q05397); assay: Biochemical assay for FAK activity, Assay 1: phosphorylation of peptide substrate with radio-labeled ATP; settings: 5 μM ATP, 30 min pre-incubation; for IC50: read-out: Assay 1 FAK TRF PXC50 (converted)
T2 construct: purchased Invitrogen PV3832
Experimental: GST-tagged (glutathione S-transferase-tagged) FAK was purchased from Invitrogen (PV3832) (www.invitrogen.com). […] To measure inhibitors of FAK, compounds were first prepared as a 10× stock in 10% DMSO. […] A 6-nM GST-FAK solution was prepared in 1.1× reaction buffer containing 44 mM HEPES, pH=7.2, 11 mM MgCl2, 2.2 mM MnCl2, 1.1 mM DTT and 0.011% Tween-20. Then, 20 μL of the 6 nM GST-FAK solution were pre-incubated with the compounds for 30 min at room temperature. […] The reaction was allowed to proceed for 90 min before being quenched with 40 μL of 1% H3PO4. A portion of the reaction mixture (60 μL) was transferred to a phospho-cellulose filter plate (Millipore; www.millipore.com, MAPHNOB50) and incubated for 20 minutes. The plate was filtrated, washed three times using 150 μL of 0.5% H3PO4 and dried at 50° C. for 30 min. After the addition of 60 μL Microscint-20 to the plate, radioactivity was measured using a TopCount (PerkinElmer; www.PerkinElmer.com).

T2 sequence (Q05397 whole entry): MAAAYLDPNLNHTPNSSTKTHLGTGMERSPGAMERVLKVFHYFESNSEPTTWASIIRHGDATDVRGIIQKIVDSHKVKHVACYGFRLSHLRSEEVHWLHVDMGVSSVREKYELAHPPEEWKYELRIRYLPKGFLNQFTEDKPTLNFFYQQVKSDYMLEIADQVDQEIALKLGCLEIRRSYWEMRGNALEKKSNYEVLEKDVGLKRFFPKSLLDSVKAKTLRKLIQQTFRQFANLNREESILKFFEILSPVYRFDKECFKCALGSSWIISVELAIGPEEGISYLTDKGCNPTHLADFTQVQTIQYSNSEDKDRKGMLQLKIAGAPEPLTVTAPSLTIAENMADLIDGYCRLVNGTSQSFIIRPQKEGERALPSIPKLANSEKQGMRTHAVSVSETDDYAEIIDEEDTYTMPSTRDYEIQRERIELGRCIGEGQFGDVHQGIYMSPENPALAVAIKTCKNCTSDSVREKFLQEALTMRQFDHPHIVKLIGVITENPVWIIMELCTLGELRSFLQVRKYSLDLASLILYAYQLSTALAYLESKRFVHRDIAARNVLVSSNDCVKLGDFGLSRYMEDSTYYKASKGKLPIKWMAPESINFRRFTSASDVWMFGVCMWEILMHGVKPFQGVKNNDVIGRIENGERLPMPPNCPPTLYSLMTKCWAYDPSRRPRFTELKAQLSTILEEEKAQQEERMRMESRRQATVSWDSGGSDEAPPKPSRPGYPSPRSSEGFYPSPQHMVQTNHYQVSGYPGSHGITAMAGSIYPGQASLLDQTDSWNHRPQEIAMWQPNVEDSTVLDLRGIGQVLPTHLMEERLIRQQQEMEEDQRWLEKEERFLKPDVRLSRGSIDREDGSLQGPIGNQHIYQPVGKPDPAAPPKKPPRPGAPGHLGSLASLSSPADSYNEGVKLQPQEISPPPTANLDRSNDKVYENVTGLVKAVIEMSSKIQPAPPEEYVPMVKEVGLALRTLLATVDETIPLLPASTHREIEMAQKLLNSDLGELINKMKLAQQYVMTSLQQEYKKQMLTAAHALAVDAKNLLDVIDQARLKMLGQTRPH
T1 sequence (Q05397 whole entry): as above

IC50 [1] [nM] | IC50 (GST-tagged FAK) [nM] | Molecule | other results
 |  | 2-({5-Chloro-2-[(1,3-dimethyl-1H-pyrazol-4-yl)amino]-4-pyridinyl}amino)-N-methylbenzamide [Example 27] | Assay 2 FAK H 31284A TRF PXC50 [1]: 8.1; Assay 1 FAK TRF PXC50 (GST-tagged FAK): 8.7
 |  | 2-({5-Chloro-2-[(1-ethyl-1H-pyrazol-5-yl)amino]-4-pyridinyl}amino)-4,5-difluoro-N-methylbenzamide [Example 10] | Assay 2 FAK H 31284A TRF PXC50 [1]: 8; Assay 1 FAK TRF PXC50 (GST-tagged FAK): 9.1
 |  | 2-({5-Chloro-2-[(1-ethyl-1H-pyrazol-5-yl)amino]-4-pyridinyl}amino)-N-ethylbenzamide [Example 44] | Assay 2 FAK H 31284A TRF PXC50 [1]: 7.2; Assay 1 FAK TRF PXC50 (GST-tagged FAK): 8.2
10 | 1.58 | CNC(=O)c1ccccc1Nc1cc(Nc2ccnn2C)ncc1Cl [Example 2, 2-({5-Chloro-2-[(1-methyl-1H-pyrazol-5-yl)amino]-4-pyridinyl}amino)-N-methylbenzamide] | 
5.01 | 0.631 | CCn1nccc1Nc1cc(Nc2ccccc2C(=O)NC)c(Cl)cn1 [Example 3, 2-({5-Chloro-2-[(1-ethyl-1H-pyrazol-5-yl)amino]-4-pyridinyl}amino)-N-methylbenzamide] | 
6.31 | 1 | CNC(=O)c1ccccc1Nc1cc(Nc2cc(C)nn2C(C)C)ncc1Cl [Example 4, 2-[(5-Chloro-2-{[3-methyl-1-(1-methylethyl)-1H-pyrazol-5-yl]amino}-4-pyridinyl)amino]-N-methylbenzamide] | 
 | 3.98 | CNC(=O)c1ccccc1Nc1cc(Nc2cc(C)nn2CCN(C)C)ncc1C(F)(F)F [Example 31, 2-{[2-({1-[2-(Dimethylamino)ethyl]-3-methyl-1H-pyrazol-5-yl}amino)-5-(trifluoromethyl)-4-pyridinyl]amino}-N-methylbenzamide] | 
 | 0.398 | CNC(=O)c1ccccc1Nc1cc(Nc2cc(C)nn2-c2ccccc2)ncc1C(F)(F)F [Example 33, N-Methyl-2-{[2-[(3-methyl-1-phenyl-1H-pyrazol-5-yl)amino]-5-(trifluoromethyl)-4-pyridinyl]amino}benzamide] | 
2.51 |  | CCn1nc(C)cc1Nc1cc(Nc2cc(F)ccc2C(=O)NC)c(Cl)cn1 [Example 88, 2-({5-Chloro-2-[(1-ethyl-3-methyl-1H-pyrazol-5-yl)amino]-4-pyridinyl}amino)-4-fluoro-N-methylbenzamide] | 
10 |  | CNC(=O)c1cccc(F)c1Nc1cc(Nc2cc(CCO)nn2C)ncc1Cl [Example 89, 2-[(5-Chloro-2-{[3-(2-hydroxyethyl)-1-methyl-1H-pyrazol-5-yl]amino}-4-pyridinyl)amino]-3-fluoro-N-methylbenzamide] | 
10 |  | CCn1nc(CCO)cc1Nc1cc(Nc2c(F)cccc2C(=O)NC)c(Cl)cn1 [Example 90, 2-[(5-Chloro-2-{[1-ethyl-3-(2-hydroxyethyl)-1H-pyrazol-5-yl]amino}-4-pyridinyl)amino]-3-fluoro-N-methylbenzamide] | 
251 |  | CNC(=O)c1cccc(F)c1Nc1cc(Nc2cc(CN(C)C)nn2C)ncc1Cl [Example 91, 2-{[5-Chloro-2-({3-[(dimethylamino)methyl]-1-methyl-1H-pyrazol-5-yl}amino)-4-pyridinyl]amino}-3-fluoro-N-methylbenzamide] | 
501 |  | CCn1nc(CN(C)C)cc1Nc1cc(Nc2c(F)cccc2C(=O)NC)c(Cl)cn1 [Example 92, 2-{[5-Chloro-2-({3-[(dimethylamino)methyl]-1-ethyl-1H-pyrazol-5-yl}amino)-4-pyridinyl]amino}-3-fluoro-N-methylbenzamide] | 
10 |  | [2H]C([2H])(O)c1cc(Nc2cc(Nc3c(F)cccc3C(=O)NC)c(Cl)cn2)n(C)n1 [Example 93, 2-[(5-Chloro-2-{[3-(hydroxymethyl)-1-methyl-1H-pyrazol-5-yl]amino}-4-pyridinyl)amino]-3-fluoro-N-methylbenzamide-d2] | 
3.98 |  | [2H]C([2H])(O)c1cc(Nc2cc(Nc3c(F)cccc3C(=O)NC)c(Cl)cn2)n(CC)n1 [Example 94, 2-[(5-Chloro-2-{[1-ethyl-3-(hydroxymethyl)-1H-pyrazol-5-yl]amino}-4-pyridinyl)amino]-3-fluoro-N-methylbenzamide-d2] | 
1.58 |  | CCn1nc(C)cc1Nc1cc(Nc2c(F)cccc2C(=O)NOC)c(Cl)cn1 [Example 95a, 2-({5-Chloro-2-[(1-ethyl-3-methyl-1H-pyrazol-5-yl)amino]-4-pyridinyl}amino)-3-fluoro-N-(methyloxy)benzamide] | 
2 |  | CONC(=O)c1cccc(F)c1Nc1cc(Nc2cc(C)nn2C)ncc1Cl [Example 95b, 2-({5-Chloro-2-[(1,3-dimethyl-1H-pyrazol-5-yl)amino]-4-pyridinyl}amino)-3-fluoro-N-(methyloxy)benzamide] | 
12.6 |  | CCn1nc(CO)cc1Nc1cc(Nc2c(F)cccc2C(=O)NOC)c(Cl)cn1 [Example 95c, 2-[(5-Chloro-2-{[1-ethyl-3-(hydroxymethyl) 1H-pyrazol-5-yl]amino}-4-pyridinyl)amino]-3-fluoro-N-(methyloxy)benzamide] | 
20 |  | CONC(=O)c1cccc(F)c1Nc1cc(Nc2cc(CO)nn2C)ncc1Cl [Example 95d, 2-[(5-Chloro-2-{[3-(hydroxymethyl)-1-methyl-1H-pyrazol-5-yl]amino}-4-pyridinyl)amino]-3-fluoro-N-(methyloxy)benzamide] | 
158 |  | CCn1nc(CN(C)C)cc1Nc1cc(Nc2c(F)cccc2C(=O)NOC)c(Cl)cn1 [Example 95e, 2-{[5-Chloro-2-({3-[(dimethylamino)methyl]-1-ethyl-1H-pyrazol-5-yl}amino)-4-pyridinyl]amino}-3-fluoro-N-(methyloxy)benzamide] | 
2 |  | CONC(=O)c1cccc(F)c1Nc1cc(Nc2cnn(C)c2C)ncc1Cl [Example 95f, 2-({5-Chloro-2-[(1,5-dimethyl-1H-pyrazol-4-yl)amino]-4-pyridinyl}amino)-3-fluoro-N-(methyloxy)benzamide] | 
20000 |  | Cc1cc(Nc2cc(Nc3ccc(F)cc3C(=O)N3CCCN3)c(Cl)cn2)n(C(C)C)n1 [Example 96a, 5-Chloro-N^4-[4-fluoro-2-(1-pyrazolidinylcarbonyl)phenyl]-N^2-[3-methyl-1-(1-methylethyl)-1H-pyrazol-5-yl]-2,4-pyridinediamine] | 
2000 |  | Cc1cc(Nc2cc(Nc3ccc(F)cc3C(=O)N3CCCN3C)c(Cl)cn2)n(C(C)C)n1 [Example 96b, 5-Chloro-N^4-{4-fluoro-2-[(2-methyl-1-pyrazolidinyl)carbonyl]phenyl}-N^2-[3-methyl-1-(1-methylethyl)-1H-pyrazol-5-yl]-2,4-pyridinediamine] | 

Molecule | IC50 [1] [nM] | IC50 (GST-tagged FAK) [nM] | other results
CNC(=O)c1ccccc1Nc1cc(Nc2cc(-c3ccccc3)nn2C)ncc1Cl [Example 1, 2-[5-Chloro-2-(2-methyl-53-ylamino)-pyridin-4-ylamino]-N-methyl-benzamide] | 15.8 | 2 | 
CCn1nc(C(=O)O)cc1Nc1cc(Nc2ccccc2C(=O)NC)c(Cl)cn1 [Example 18, 5-{[5-Chloro-4-({2-[(methylamino)carbonyl]phenyl}amino)-2-pyridinyl]amino}-1-ethyl-1H-pyrazole-3-carboxylic acid] |  | 10 | 
CNC(=O)c1ccccc1Nc1cc(Nc2cc(C)nn2CCO)ncc1C(F)(F)F [Example 34, 2-{[2-{[1-(2-hydroxyethyl)-3-methyl-1H-pyrazol-5-yl]amino}-5-(trifluoromethyl)-4-pyridinyl]amino}-N-methylbenzamide] |  | 0.501 | 
